Where two headings read alike, the source gives them in different places.
What was measured:
[1] = test system: circulating TIE2+ and TIE2+/MET+ monocytes; assay: Flow cytometry of circulating TIE2/MET-expressing monocytes from U87-MG xenograft model; assay type: in vivo, mice; conditions: single agents; after five weeks of treatment
Method: Flow cytometry of circulating TIE2/MET-expressing monocytes from U87-MG xenograft model. Peripheral blood samples were fixed using Lyse/Fix buffer (BD Biosciences, San Jose, Calif.). BD Fc Block was added and cells were stained with CD11b-PECy7 and Gr1-APC antibodies (BD Pharmingen), and TIE2-PE and MET-FITC antibodies (eBioscience) or isotype controls. Data was collected on an Accuri C6 cytometer. Monocytes were gated using side and forward scatter.
To monitor these monocytes in the U87 survival model, peripheral monocytes were gated on CD11b+/Grl-surface markers and TIE2^+ and/or TIE2^+/MET^+ cells quantitated. In the U87 glioma survival study, we observed both of these TIE2^+ expressing monocyte populations in the circulation of vehicle-treated mice after five weeks of treatment. […] The lowered population of both of these TIE2^+ monocyte populations in the combination cohort was consistent with greater survival benefit (FIG. 6).

[2] = test system: A375
Excerpt: Mice were implanted subcutaneously and treatment began on Day 8. Treatments ended on Day 36 after four weeks of treatment.

[3] = test system: SK-MEL-28 and SK-MEL-5 cells (pERK, pMET, AKT); assay: HGF-stimulated melanoma cell signal transduction assay; assay type: cell-based; conditions: 50 nM, 50 ng/mL HGF 1 hr
Method: SK-MEL-5 and SK-MEL-28 cells were added to 12-well plates at 450,000 and 250,000 cells/well, respectively, and incubated overnight. […] Cells were then stimulated with 50 ng/mL HGF for 1 hr. Antibodies were obtained from Cell Signaling Technology.

[4] = test system: macrophage-mediated intravasation of human breast cancer cells (MDA-MB 231-GFP); assay: In vitro intravasation-directed transendothelial migration (iTEM) assay; assay type: cell-based; conditions: BAC1.2F5 macrophages, HUVEC monolayer
Method: In vitro intravasation-directed transendothelial migration (iTEM) assay protocol. The iTEM assay was performed in a Transwell two-chamber apparatus. The Transwell was prepared so that tumor cell transendothelial migration of tumor cells was in the intravasation direction (from subluminal side to luminal side of the endothelium). We define this as the iTEM assay. To prepare the endothelial monolayer, the underside of each Transwell was coated with 50 μl of Matrigel (2.5 μg/ml; Invitrogen). About 100,000 HUVEC cells were plated on the Matrigel-coated underside of the Transwells. Transwells were then flipped onto a 24-well plate containing 200 μl of α-MEM (minimum essential medium) supplemented with 10% fetal bovine serum (FBS)+3000 U of CSF-1 and incubated until the endothelium formed impermeable monolayers. […] Once impermeable by these criteria, the Transwell assay was used for iTEM studies. All the assays were run in the presence of BAC1.2F5 murine macrophage cell line and MDA-MB 231-GFP human breast cancer cells. Transwells were imaged using a Leica SP5 confocal microscope using a 60×1.4 numerical aperture objective and processed using ImageJ [National Institutes of Health (NIH)] and IMAMS programs. Quantitation was performed by counting the number of tumor cells that had crossed the endothelium within the same field of view (60×, 10 random fields).

[5] = test system: GSC11 glioblastoma cells; assay: GSC11 glioma stem cell patient-derived xenograft model (tumor volume, immunohistochemistry); assay type: in vivo, mice
Method: For the in vivo experiments, 4- to 6-week-old female nude mice that were strictly inbred at The University of Texas MD Anderson Cancer Center and maintained in the MD Anderson Veterinary in accordance with institutional guidelines were used. For the in vivo experiments, GSC11 (5×10^5) or GSC17 (5×10^4) glioblastoma cells were implanted intracranially into nude mice. […] Control mice for these cohorts were treated with phosphate-buffered saline by i.p. injection and/or with 0.4% HPMC vehicle by oral gavage. One cohort of 10 mice per group were treated continuously and followed for survival. A separate cohort of 9 mice per group were treated continuously until the designated time point, and the tumors from these mice were extracted at 3, 4, 5 weeks in GSC11 xenograft mice model and at 3.5, 4.5, 5.5 weeks in GSC17 xenograft mice model after the start of treatment.
When the mice treated for the designated time period developed signs and symptoms of advanced tumors, they were euthanized, and their brains were removed, fixed in 4% formaldehyde for 24 hours, and embedded in paraffin. The tissues were then sectioned serially (4 μm) and stained with hematoxylin and eosin (Sigma-Aldrich). Tumor formation and phenotype were determined by histologic analysis of the hematoxylin- and eosin-stained sections. The tumor volume, greatest longitudinal diameter (length), and greatest transverse diameter (width) were measured using an external caliper and Adobe Illustrator software. The tumor volumes were calculated by the following formula: volume=½(length×width^2).
For immunohistochemical analyses, the tissue sections were deparaffinized and subjected to graded rehydration. After blocking the tissue in 5% horse and goat serum and antigen retrieval solution (citrate buffer, pH 6.0), we incubated the tissue sections overnight at 4° C. with primary antibodies against Factor VIII (1:500; A0082, Dako) to assess microvessel formation, vimentin (1:100; M0725, Dako) to assess mesenchymal marker expression, F4/80 (1:50; 123102, BioLegend) to assess monocyte infiltration, nestin (1:300; Ab6142, Abcam) to assess glioma stem cell marker expression, HGF (1:200; LS-B4657, LSBio), and TIE2 (1:50; Santa Cruz Biotechnology) to assess TIE2-expressing monocyte infiltration. Texas red fluorescein isothiocyanate-conjugated secondary antibodies or anti-rat immunoglobulin G antibodies (Invitrogen) were used for 1 hour at room temperature.
All statistical analyses were conducted with the GraphPad 6 (InStat) software for Windows 7. Survival analysis was conducted using the Kaplan-Meier method, and differences in survival between treatment groups were assessed using the log-rank test. All other comparisons were performed using an unpaired two-tailed Student t-test. Summary statistics for continuous data are expressed as the mean±standard error of the mean. P values less than 0.05 were considered statistically significant. The nestin staining was assessed using the Image-Pro Plus system version 7.0 (Media Cybernetics) in ×10 fields of at least three tumor samples per group with three to four different sections per tumor sample.

O=C(Nc1cc(Oc2cc(F)c(NC(=O)C3(C(=O)Nc4ccc(F)cc4)CC3)cc2F)ccn1)C1CC1 [Compound 1, N-(4-(2-(cyclopropanecarboxamido)pyridin-4-yloxy)-2,5-difluorophenyl)-N′-(4-fluorophenyl)cyclopropane-1,1-dicarboxamide]
Numbers of circulating TIE2+ and TIE2+/MET+ monocyte populations [1]: did not alter | Day 22 % T/C ([2]; 10 mg/kg, orally, BID): 47% | Median tumor growth delay ([2]; 10 mg/kg, orally, BID): > 12.4 days | Day 22 % T/C ([2]; 20 mg/kg, orally, QD): 33% | Tumor growth delay ([2]; 20 mg/kg, orally, QD): 15.7 days | CD31+ microvessel area in tumor sections at the end of study ([2]; mouse, in vivo): significant decreases | HGF-induced activation of MET and AKT [3]: inhibited | IC50 [4]: < 10 nM | Tumor volume at 3 weeks ([5]; GSC11, bevacizumab 10 mg/kg i.p. twice per week, Compound 1 10 mg/kg oral twice daily): 1.2±0.5 mm^3 | Tumor volume at 4 weeks ([5]; GSC11, same dosing): 9.8±2.8 mm^3 | Tumor volume at 5 weeks ([5]; GSC11, same dosing): 32.3±14.6 mm^3 | Factor VIII-positive area ([5]; GSC11 model): 1.1±0.5% | Nestin-positive area ([5]; GSC11 xenograft mouse model): 17.7±2.7% | Mesenchymal tumor marker vimentin / EMT (immunohistochemistry) ([5]; GSC-11 glioma model): does not cause elevation of vimentin | Macrophage infiltration into tumor (F4/80 IHC staining) ([5]; GSC-11 glioma xenograft model): does not result in therapy resistance-mediated increases in macrophage infiltration

Reference: patent US20170079966A1, “INHIBITION OF TUMOR CELL INTERACTIONS WITH THE MICROENVIRONMENT RESULTING IN A REDUCTION IN TUMOR GROWTH AND DISEASE PROGRESSION” (Deciphera Pharmaceuticals, LLC, priority 2014, published 2017)
